Results as given in ChEMBL document CHEMBL5331050, “Spiro[benzoxazine-piperidin]-one derivatives as chitin synthase inhibitors and antifungal agents: Design, synthesis and biological evaluation” (Eur J Med Chem, 2022).
Values after ≈ are worked out from the molar mass of the structure shown.

Experiments:
Candida albicans [1] = experiment: Antifungal activity against Candida albicans ATCC 76615 assessed as fungal growth inhibition incubated for 24 hrs by CLSI protocol based broth microdilution method; assay type: functional
Aspergillus fumigatus [2] = experiment: Synergistic antifungal activity against Aspergillus fumigatus GIMCC 3.19 assessed as fungal growth inhibition incubated for 24 hrs in the presence of fluconazole by broth dilution based checkerboard method; assay type: functional
Aspergillus fumigatus [3] = experiment: Antifungal activity against Aspergillus fumigatus GIMCC 3.19 assessed as fungal growth inhibition incubated for 24 hrs by CLSI protocol based broth microdilution method; assay type: functional
Candida albicans [4] = experiment: Synergistic antifungal activity against Candida albicans ATCC 76615 assessed as fractional inhibitory concentration index incubated for 24 hrs in the presence of fluconazole by broth dilution based checkerboard method; assay type: functional
[5] = Inhibition of Candida tropicalis ATCC 750 chitin synthase using UDP-GlcNAc as substrate incubated for 1 hrs by absorbance based assay
Cryptococcus neoformans [6] = experiment: Synergistic antifungal activity against Cryptococcus neoformans ATCC 208821 assessed as fungal growth inhibition incubated for 24 hrs in the presence of fluconazole by broth dilution based checkerboard method; assay type: functional
Aspergillus flavus [7] = experiment: Synergistic antifungal activity against Aspergillus flavus ATCC 16870 assessed as fractional inhibitory concentration index incubated for 24 hrs in the presence of fluconazole by broth dilution based checkerboard method; assay type: functional
Candida albicans [8] = experiment: Synergistic antifungal activity against Candida albicans ATCC 76615 assessed as fungal growth inhibition incubated for 24 hrs in the presence of fluconazole by broth dilution based checkerboard method; assay type: functional
Aspergillus flavus [9] = experiment: Synergistic antifungal activity against Aspergillus flavus ATCC 16870 assessed as fungal growth inhibition incubated for 24 hrs in the presence of fluconazole by broth dilution based checkerboard method; assay type: functional
Aspergillus fumigatus [10] = experiment: Synergistic antifungal activity against Aspergillus fumigatus GIMCC 3.19 assessed as fractional inhibitory concentration index incubated for 24 hrs in the presence of fluconazole by broth dilution based checkerboard method; assay type: functional
Cryptococcus neoformans [11] = experiment: Synergistic antifungal activity against Cryptococcus neoformans ATCC 208821 assessed as fractional inhibitory concentration index incubated for 24 hrs in the presence of fluconazole by broth dilution based checkerboard method; assay type: functional
Candida tropicalis = experiment: Inhibition of Candida tropicalis ATCC 750 chitin synthase using UDP-GlcNAc as substrate at 300 ug/ml incubated for 1 hrs by absorbance based assay relative to control; conditions: dose 300.0 µg/ml
Cryptococcus neoformans [12] = experiment: Antifungal activity against Cryptococcus neoformans ATCC 208821 assessed as fungal growth inhibition incubated for 24 hrs by CLSI protocol based broth microdilution method; assay type: functional
Aspergillus flavus [13] = experiment: Antifungal activity against Aspergillus flavus ATCC 16870 assessed as fungal growth inhibition incubated for 24 hrs by CLSI protocol based broth microdilution method; assay type: functional
Cryptococcus neoformans [14] = experiment: Antifungal activity against Cryptococcus neoformans ATCC 208821 assessed as disruption of fungal wall by measuring fungal growth incubated for 24 hrs in the presence of sorbitol; assay type: functional
Candida albicans [15] = experiment: Antifungal activity against Candida albicans ATCC 76615 assessed as disruption of fungal wall by measuring fungal growth incubated for 24 hrs in the presence of sorbitol; assay type: functional
Aspergillus flavus [16] = experiment: Antifungal activity against Aspergillus flavus ATCC 16870 assessed as disruption of fungal wall by measuring fungal growth incubated for 24 hrs in the presence of sorbitol; assay type: functional
Aspergillus fumigatus [17] = experiment: Antifungal activity against Aspergillus fumigatus GIMCC 3.19 assessed as disruption of fungal wall by measuring fungal growth incubated for 24 hrs in the presence of sorbitol; assay type: functional

Row | SMILES | MIC (Candida albicans [1]) | MIC (Aspergillus fumigatus [2]) | MIC (Aspergillus fumigatus [3]) | IC50 [5] | MIC (Cryptococcus neoformans [6]) | MIC (Candida albicans [8]) | MIC (Aspergillus flavus [9]) | inhibition (Candida tropicalis) | MIC (Cryptococcus neoformans [12]) | MIC (Aspergillus flavus [13]) | fractional inhibitory concentration index (FICI) (Candida albicans [4]) | fractional inhibitory concentration index (FICI) (Aspergillus flavus [7]) | fractional inhibitory concentration index (FICI) (Aspergillus fumigatus [10]) | fractional inhibitory concentration index (FICI) (Cryptococcus neoformans [11]) | MIC (Cryptococcus neoformans [14]) | MIC (Candida albicans [15]) | MIC (Aspergillus flavus [16]) | MIC (Aspergillus fumigatus [17])
1 | NC(=O)OC[C@H](O)[C@@H](O)[C@H](N)C(=O)N[C@H](C(=O)O)[C@H]1O[C@@H](n2cc(CO)c(=O)[nH]c2=O)[C@H](O)[C@@H]1O [POLYOXIN B] | 64 µg/mL (≈ 126 µM) |  | 32 µg/mL (≈ 63.1 µM) | 80 µM |  |  |  | 85% | 64 µg/mL (≈ 126 µM) | 64 µg/mL (≈ 126 µM) |  |  |  |  | > 512 µg/mL | 512 µg/mL | > 512 µg/mL | 512 µg/mL
2 | COc1ccc2c(c1)C1(CCN(C(=O)/C=C/C(=O)Nc3ccccc3C)CC1)OC(=O)N2 | 256 µg/mL (≈ 588 µM) |  | > 512 µg/mL |  |  |  |  | 14% | > 512 µg/mL | 512 µg/mL (≈ 1180 µM) |  |  |  |  |  |  |  | 
3 | COc1ccc2c(c1)C1(CCN(C(=O)CCC(=O)Nc3ccc(C)cc3)CC1)OC(=O)N2 | 128 µg/mL (≈ 293 µM) |  | > 512 µg/mL |  |  |  |  | 11% | 256 µg/mL (≈ 585 µM) | 256 µg/mL (≈ 585 µM) |  |  |  |  |  |  |  | 
4 | COc1ccc(NC(=O)CCC(=O)N2CCC3(CC2)OC(=O)Nc2ccc(OC)cc23)cc1 | > 512 µg/mL |  | 256 µg/mL (≈ 565 µM) |  |  |  |  | 17% | 256 µg/mL (≈ 565 µM) | > 512 µg/mL |  |  |  |  |  |  |  | 

Further lines, with some results ahead:

Row | MIC (Candida albicans [1]) | MIC (Aspergillus fumigatus [2]) | MIC (Aspergillus fumigatus [3]) | IC50 [5] | MIC (Cryptococcus neoformans [6]) | MIC (Candida albicans [8]) | MIC (Aspergillus flavus [9]) | inhibition (Candida tropicalis) | MIC (Cryptococcus neoformans [12]) | MIC (Aspergillus flavus [13]) | SMILES | fractional inhibitory concentration index (FICI) (Candida albicans [4]) | fractional inhibitory concentration index (FICI) (Aspergillus flavus [7]) | fractional inhibitory concentration index (FICI) (Aspergillus fumigatus [10]) | fractional inhibitory concentration index (FICI) (Cryptococcus neoformans [11]) | MIC (Cryptococcus neoformans [14]) | MIC (Candida albicans [15]) | MIC (Aspergillus flavus [16]) | MIC (Aspergillus fumigatus [17])
5 | 64 µg/mL (≈ 152 µM) | 26 µg/mL | 53.3 µg/mL (≈ 127 µM) | 280 µM | 16 µg/mL | 32 µg/mL | 64 µg/mL | 69% | 64 µg/mL (≈ 152 µM) | 53.3 µg/mL (≈ 127 µM) | COc1ccc2c(c1)C1(CCN(C(=O)/C=C/C(=O)Nc3ccccc3)CC1)OC(=O)N2 | 1 | 1.125 | 0.55 | 1.125 |  |  |  | 
6 | 128 µg/mL (≈ 294 µM) |  | 256 µg/mL (≈ 588 µM) | 370 µM |  |  |  | 65% | 256 µg/mL (≈ 588 µM) | 256 µg/mL (≈ 588 µM) | COc1ccc2c(c1)C1(CCN(C(=O)/C=C/C(=O)Nc3ccc(C)cc3)CC1)OC(=O)N2 |  |  |  |  |  |  |  | 
7 | 512 µg/mL (≈ 1100 µM) |  | > 512 µg/mL |  |  |  |  | 13% | > 512 µg/mL | > 512 µg/mL | COc1ccc2c(c1)C1(CCN(C(=O)/C=C/C(=O)Nc3ccc([N+](=O)[O-])cc3)CC1)OC(=O)N2 |  |  |  |  |  |  |  | 
8 | 16 µg/mL (≈ 35.1 µM) | 64 µg/mL | 32 µg/mL (≈ 70.2 µM) |  | 16 µg/mL | 16 µg/mL | 13.3 µg/mL | 36% | 32 µg/mL (≈ 70.2 µM) | 32 µg/mL (≈ 70.2 µM) | COc1ccc2c(c1)C1(CCN(C(=O)/C=C/C(=O)Nc3ccccc3Cl)CC1)OC(=O)N2 | 1.125 | 1.42 | 2 | 0.625 |  |  |  | 
9 | 512 µg/mL (≈ 1120 µM) |  | 128 µg/mL (≈ 281 µM) |  |  |  |  | 51% | 512 µg/mL (≈ 1120 µM) | 256 µg/mL (≈ 562 µM) | COc1ccc2c(c1)C1(CCN(C(=O)/C=C/C(=O)Nc3ccc(Cl)cc3)CC1)OC(=O)N2 |  |  |  |  |  |  |  | 
10 | 256 µg/mL (≈ 512 µM) |  | 128 µg/mL (≈ 256 µM) |  |  |  |  | 40% | 256 µg/mL (≈ 512 µM) | 64 µg/mL (≈ 128 µM) | COc1ccc2c(c1)C1(CCN(C(=O)/C=C/C(=O)Nc3ccccc3Br)CC1)OC(=O)N2 |  |  |  |  |  |  |  | 
